Results published in publication PMC7279216, “Identification of Inhibitors to Trypanosoma cruzi Sirtuins Based on Compounds Developed to Human Enzymes” (International Journal of Molecular Sciences, 2020).
Like-named read-outs stand apart in the source and are kept apart here.

How the values were obtained:
T. cruzi Y H10 strain [1] = assay: High content assay (HCA), T. cruzi in vitro infection of U2OS cells; type: cell-based, Trypanosoma cruzi; conditions: for EC50: read-out: EC50 Value (reduces 50% of infected cells number); for SI (selectivity index = CC50/EC50): U2OS CC50 / T. cruzi EC50
[2] = Host cell cytotoxicity in high content assay; conditions: human
TcSir2rp3 = TcSir2rp3 (Trypanosoma cruzi, UniProt Q4E5B9); assay: biochemical; conditions: for inhibition at 5 µM: read-out: % of inhibition of TcSir2rp3 deacetylase activity
SIRT1 = test system: SIRT1; design: method as in ref 22, 27 and unpublished results; conditions: 27 and unpublished results, cited from earlier work; for IC50: read-out: IC50 against human SIRT1
SIRT2 = test system: SIRT2; design: method as in ref 22, 27 and unpublished results; conditions: 27 and unpublished results, cited from earlier work; for IC50: read-out: IC50 against human SIRT2
T. cruzi Y H10 strain [3] = assay: Combinatory high content assay of SIRTi with BZN, T. cruzi in vitro infection; type: cell-based, Trypanosoma cruzi; conditions: for combinatory effect with benznidazole, overall: combination with BZN; for trypanocidal activity of SIRTi+BZN compared to BZN alone / trypanocidal activity of SIRTi+BZN compared to SIRTi alone: combination with BZN at constant EC50 ratios
TcSir2rp1 = TcSir2rp1 (Trypanosoma cruzi, UniProt Q4DP02); assay: biochemical; type: biochemical; conditions: for inhibition of TcSir2rp1 deacetylase activity: 5 µM
SIRT5 = test system: SIRT5; design: method as in ref 27 and unpublished results; conditions: ref 27 and unpublished results; cited from earlier work
[4] = U2OS cells infected with T. cruzi Y H10 trypomastigotes
[5] = Trypanosoma cruzi, U2OS, 96 h, U2OS cells infected with T. cruzi, 96 hours incubation
[6] = Ratio 1, EC50 ratio 1/32 (BZN 0.8 µM)
[7] = Ratio 2, EC50 ratio 1/16 (BZN 1.5 µM)
[8] = Ratio 3, EC50 ratio 1/8 (BZN 3 µM)
[9] = Ratio 4, EC50 ratio 1/4 (BZN 6 µM)
[10] = Ratio 5, EC50 ratio 1/2 (BZN 12 µM)
[11] = Ratio 6, EC50 ratio 1 (BZN 24 µM)
[12] = Ratio 7, EC50 ratio 2 (BZN 48 µM)

Sequence of TcSir2rp1 (Q4DP02 entry or part of it): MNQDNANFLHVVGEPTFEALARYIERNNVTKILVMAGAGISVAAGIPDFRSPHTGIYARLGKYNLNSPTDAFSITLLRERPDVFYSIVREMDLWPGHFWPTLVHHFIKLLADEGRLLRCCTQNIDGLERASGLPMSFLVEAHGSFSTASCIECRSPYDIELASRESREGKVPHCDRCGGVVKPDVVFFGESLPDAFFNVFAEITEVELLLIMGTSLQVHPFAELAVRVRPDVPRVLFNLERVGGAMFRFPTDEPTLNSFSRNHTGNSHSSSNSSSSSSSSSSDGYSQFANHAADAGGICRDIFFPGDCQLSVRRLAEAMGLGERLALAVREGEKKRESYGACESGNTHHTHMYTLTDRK
Sequence of TcSir2rp3 (Q4E5B9 entry or part of it): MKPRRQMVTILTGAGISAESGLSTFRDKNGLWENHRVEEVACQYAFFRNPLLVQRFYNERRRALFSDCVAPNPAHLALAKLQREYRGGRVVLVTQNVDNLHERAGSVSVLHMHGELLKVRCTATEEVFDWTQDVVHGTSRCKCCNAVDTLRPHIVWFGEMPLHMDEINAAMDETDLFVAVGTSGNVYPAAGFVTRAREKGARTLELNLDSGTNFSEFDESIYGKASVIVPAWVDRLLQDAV

SMILES: O=C(Cn1ccnc1[N+](=O)[O-])NCc1ccccc1 [BZN, benznidazole, reference compound]
- EC50 (T. cruzi Y H10 strain [1]; Trypanosoma cruzi, U2OS, 96 h): 1.96 µM
- SI (selectivity index = CC50/EC50) (T. cruzi Y H10 strain [1]): > 102
- CC50 at 96 h [2, 4]: > 200 µM

SMILES: CC(CSc1cccc(/N=C/c2c(O)ccc3ccccc23)c1)c1ccccc1 (stereo not shown) [Compound 8]
- inhibition at 5 µM (TcSir2rp3): > 30%
- IC50 (TcSir2rp3; read-out: TcSir2rp3 IC50 ± SD): 18.8 ± 5.34 µM
- EC50 (T. cruzi Y H10 strain [1]; [5]): 40.6 µM
- SI (selectivity index = CC50/EC50) (T. cruzi Y H10 strain [1]): 1.89
- IC50 (SIRT1): ~40 µM
- IC50 (SIRT2): ~20 µM
- CC50 at 96 h [2, 4]: 76.8 µM

SMILES: O=c1[nH]c(SCc2ccc3ccccc3c2)nc(-c2ccccc2)c1Cc1c(O)ccc2ccccc12 [Compound 12]
- inhibition at 5 µM (TcSir2rp3): > 30%
- IC50 (TcSir2rp3; read-out: TcSir2rp3 IC50 ± SD): 14.3 ± 6.06 µM
- EC50 (T. cruzi Y H10 strain [1]; [5]): 35.4 µM
- SI (selectivity index = CC50/EC50) (T. cruzi Y H10 strain [1]): 1.38
- type of interaction with BZN (T. cruzi Y H10 strain [3]; 1/4 ratio): synergistic effect
- CI (combinatory index) with BZN (T. cruzi Y H10 strain [3]; [6]): 6.6
- CI (combinatory index) with BZN (T. cruzi Y H10 strain [3]; [7]): 13.2
- CI (combinatory index) with BZN (T. cruzi Y H10 strain [3]; [8]): 1.02
- CI (combinatory index) with BZN (T. cruzi Y H10 strain [3]; [9]): 0.82
- CI (combinatory index) with BZN (T. cruzi Y H10 strain [3]; [10]): 1.14
- CI (combinatory index) with BZN (T. cruzi Y H10 strain [3]; [11]): 1.48
- CI (combinatory index) with BZN (T. cruzi Y H10 strain [3]; [12]): 2.29
- combinatory effect with benznidazole, overall (T. cruzi Y H10 strain [3]): low or no synergism
- trypanocidal activity of SIRTi+BZN compared to BZN alone (T. cruzi Y H10 strain [3]): no difference
- type of interaction with BZN (T. cruzi Y H10 strain [3]; ratios 1/8, 1/2 and 1/1): additive effect
- type of interaction with BZN (T. cruzi Y H10 strain [3]; ratios lower than 1/8): antagonistic effect
- IC50 (SIRT1): > 150 µM
- IC50 against human SIRT2 (SIRT2): single-digit micromolar
- IC50 (SIRT2): 6.3 µM
- CC50 at 96 h [2, 4]: 48.8 µM

SMILES: O=C(CSc1nc(-c2ccccc2)c(Cc2c(O)ccc3ccccc23)c(=O)[nH]1)c1ccccc1 [Compound 13]
- inhibition at 5 µM (TcSir2rp3): > 30%
- IC50 (TcSir2rp3; read-out: TcSir2rp3 IC50 ± SD): 18.5 ± 1.97 µM
- EC50 (T. cruzi Y H10 strain [1]; [5]): 45.1 µM
- SI (selectivity index = CC50/EC50) (T. cruzi Y H10 strain [1]): > 2.2
- IC50 (SIRT1): > 150 µM
- IC50 against human SIRT2 (SIRT2): single-digit micromolar
- CC50 at 96 h [2, 4]: > 100 µM

SMILES: CCCCCSc1nc(-c2ccccc2)c(Cc2c(O)ccc3ccccc23)c(=O)[nH]1 [Compound 15]
- IC50 (TcSir2rp1): 32.4 ± 7.88 µM
- inhibition of TcSir2rp1 deacetylase activity (TcSir2rp1): inhibited TcSir2rp1 activity
- EC50 (T. cruzi Y H10 strain [1]; [5]): 19.4 µM
- SI (selectivity index = CC50/EC50) (T. cruzi Y H10 strain [1]): 1.89
- EC50 (T. cruzi Y H10 strain [1]; U2OS cells infected with T. cruzi, 96 hours incubation): 19.4 µM
- IC50 (SIRT1): > 150 µM
- IC50 against human SIRT2 (SIRT2): single-digit micromolar
- CC50 at 96 h [2, 4]: 36.4 µM

SMILES: O=c1[nH]c(N/N=C/c2ccc([N+](=O)[O-])cc2)nc(-c2ccccc2)c1Cc1c(O)ccc2ccccc12 [Compound 17]
- IC50 (TcSir2rp1): 25.5 ± 4.73 µM
- inhibition of TcSir2rp1 deacetylase activity (TcSir2rp1): inhibited TcSir2rp1 activity
- EC50 (T. cruzi Y H10 strain [1]; [5]): 8.5 µM
- SI (selectivity index = CC50/EC50) (T. cruzi Y H10 strain [1]): 2.31
- CI (combinatory index) with BZN (T. cruzi Y H10 strain [3]; [6]): 0.38
- CI (combinatory index) with BZN (T. cruzi Y H10 strain [3]; [7]): 0.69
- CI (combinatory index) with BZN (T. cruzi Y H10 strain [3]; [8]): 0.73
- CI (combinatory index) with BZN (T. cruzi Y H10 strain [3]; [9]): 0.74
- CI (combinatory index) with BZN (T. cruzi Y H10 strain [3]; [10]): 1.25
- CI (combinatory index) with BZN (T. cruzi Y H10 strain [3]; [11]): 2.45
- CI (combinatory index) with BZN (T. cruzi Y H10 strain [3]; [12]): 3.52
- combinatory effect with benznidazole, overall (T. cruzi Y H10 strain [3]): synergistic effects
- trypanocidal activity of SIRTi+BZN compared to BZN alone (T. cruzi Y H10 strain [3]): no increase in trypanocidal activity
- trypanocidal activity of SIRTi+BZN compared to SIRTi alone (T. cruzi Y H10 strain [3]): increase in the trypanocidal activity
- type of interaction with BZN (T. cruzi Y H10 strain [3]; ratios 1/2, 1, and 2): antagonistic effect
- type of interaction with BZN (T. cruzi Y H10 strain [3]; ratios lower than 1/4): tendency towards a synergistic effect
- IC50 (SIRT1): ~50 µM
- IC50 (SIRT2): ~50 µM
- CC50 at 96 h [2, 4]: 19.6 µM

SMILES: CCOC(=O)/C(=C\c1cc(C(=O)c2ccccc2OC)c[nH]1)C(=O)Nc1cccc2ncccc12 [Compound 27]
- inhibition of TcSir2rp1 deacetylase activity (TcSir2rp1): did not show potent inhibitory effect
- % of inhibition of TcSir2rp3 deacetylase activity (TcSir2rp3; 5 µM): did not show potent inhibitory effect
- EC50 (T. cruzi Y H10 strain [1]; [5]): 5.73 µM
- SI (selectivity index = CC50/EC50) (T. cruzi Y H10 strain [1]): 8.18
- IC50 (SIRT2): 10.5 µM
- CC50 at 96 h [2, 4]: 46.9 µM

SMILES: CCN1C(=O)/C(=C\c2ccc(-c3ccc(Cl)c(Cl)c3)o2)C(=O)NC1=S [Compound 30]
- inhibition at 5 µM (TcSir2rp3): > 30%
- EC50 (T. cruzi Y H10 strain [1]; Trypanosoma cruzi, U2OS, 96 h): 42.7 µM
- IC50 against human SIRT1 (SIRT1): single-digit micromolar
- IC50 against human SIRT2 (SIRT2): single-digit micromolar
- IC50 against human SIRT5 (SIRT5): single-digit micromolar
- CC50 at 96 h [2]: > 100 µM

SMILES: CCCN1C(=O)/C(=C\c2ccc(-c3ccc(Cl)c(Cl)c3)o2)C(=O)NC1=S [Compound 31]
- IC50 (TcSir2rp3): 16.3 ± 9.54 µM

SMILES: C=CCN1C(=O)/C(=C\c2ccc(-c3ccc(Cl)c(Cl)c3)o2)C(=O)NC1=S [Compound 32]
- IC50 (TcSir2rp3): 16.4 ± 6.7 µM
- inhibition at 5 µM (TcSir2rp3): > 30%
- EC50 (T. cruzi Y H10 strain [1]; Trypanosoma cruzi, U2OS, 96 h): 39.8 µM
- type of interaction with BZN (T. cruzi Y H10 strain [3]; all concentration ratios lower than 1/2): synergistic effect
- combinatory effect with benznidazole, overall (T. cruzi Y H10 strain [3]): synergistic effects
- trypanocidal activity of SIRTi+BZN compared to BZN alone (T. cruzi Y H10 strain [3]): not if compared to BZN alone
- trypanocidal activity of SIRTi+BZN compared to SIRTi alone (T. cruzi Y H10 strain [3]): increased the trypanocidal activity
- IC50 against human SIRT1 (SIRT1): single-digit micromolar
- IC50 against human SIRT2 (SIRT2): single-digit micromolar
- IC50 against human SIRT5 (SIRT5): single-digit micromolar
- CC50 at 96 h [2]: 77 µM
